Results as given in the supplement of paper PMC10627819.

Key:
Assay in all cases: fitness (endpoint OD595 vs no drug) (fraction); higher = more growth
S. aureus Newman = test system: S. aureus Newman
In short: (§1)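 Fitness was measured as bacterial growth in 384-well plates inoculated at OD595 0.01 (30 µl, or 55 µl for S. pneumoniae). Media were TSB, LB Lennox or CY, at 37 °C. OD595 was read every 30 min for 14 h and background-subtracted against the first reading. Fitness is OD595 at the transition into stationary phase divided by the robust mean of no-drug control wells, capped at 1.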

S. pneumoniae D39V = test system: S. pneumoniae D39V
In short: as §1

B. subtilis 168 = details: main component drawn
In short: as §1
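Note: OD595 on entry to stationary phase over no-drug wells; at most 1.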

C/C(=C\C(=O)OCCCCCCCCC(=O)O)C[C@@H]1OC[C@H](C[C@@H]2O[C@H]2[C@@H](C)[C@H](C)O)[C@@H](O)[C@H]1O [Pseudomonic acid] + CC1(C)S[C@@H]2[C@H](NC(=O)Cc3ccccc3)C(=O)N2[C@H]1C(=O)O [Penicillin G]
fitness, S. aureus Newman, one replicate
Details	first compound 0.0313 µg/mL	first compound 0.0625 µg/mL	first compound 0.125 µg/mL
partner 0.0195 µg/mL	0.0428	0.0466	0.0353
partner 0.039 µg/mL	0.0545	0.0468	0.0403
partner 0.078 µg/mL	0.069	0.0571	0.0351

CC[C@H]1OC(=O)[C@H](C)[C@@H](O[C@H]2C[C@@](C)(OC)[C@@H](O)[C@H](C)O2)[C@H](C)[C@@H](O[C@@H]2O[C@H](C)C[C@H](N(C)C)[C@H]2O)[C@](C)(OC)C[C@@H](C)C(=O)[C@H](C)[C@@H](O)[C@]1(C)O [Clarithromycin] + CO/N=C(\C(=O)N[C@@H]1C(=O)N2C(C(=O)O)=C(COC(C)=O)CS[C@H]12)c1csc(N)n1 [Cefotaxime]
fitness, S. pneumoniae D39V, one replicate
Details	first compound 0.007812 µg/mL	first compound 0.01562 µg/mL	first compound 0.03125 µg/mL
partner 0.0018 µg/mL	0.903	0.874	0.652
partner 0.0035 µg/mL	0.922	0.868	0.662
partner 0.007 µg/mL	0.704	0.698	0.596

fitness, S. pneumoniae D39V
Details	first compound 0.0625 µg/mL	first compound 0.07 µg/mL	first compound 0.125 µg/mL	first compound 0.14 µg/mL	first compound 0.25 µg/mL	first compound 0.28 µg/mL
partner 0.0018 µg/mL	0.643	0.155	0.36	0.11	0.134	0.0567
partner 0.0035 µg/mL	0.626	0.149	0.354	0.106	0.136	0.0647
partner 0.007 µg/mL	0.532	0.103	0.296	0.108	0.0943	0.0726

C[C@@H](O)[C@H]1C(=O)N2C(C(=O)O)=C(SCCNC=N)C[C@H]12 [Imipenem] + CC1=C(C(=O)O)N2C(=O)[C@@H](NC(=O)[C@H](N)c3ccccc3)[C@H]2SC1 [Cephalexin]
fitness, S. pneumoniae D39V, one replicate
Details	first compound 0.005 µg/mL	first compound 0.01 µg/mL	first compound 0.02 µg/mL
partner 0.125 µg/mL	0.899	0.909	0.942
partner 0.25 µg/mL	0.874	0.946	0.938
partner 0.5 µg/mL	0.943	0.978	0.95

fitness, S. pneumoniae D39V
Details	first compound 0.0065 µg/mL	first compound 0.013 µg/mL	first compound 0.026 µg/mL
partner 1 µg/mL	0.278	0.4	0.176
partner 2 µg/mL	0.0001	0.0222	0.0128
partner 4 µg/mL	0.0361	0.0148	0.0072

C/C(=C\C(=O)OCCCCCCCCC(=O)O)C[C@@H]1OC[C@H](C[C@@H]2O[C@H]2[C@@H](C)[C@H](C)O)[C@@H](O)[C@H]1O [Pseudomonic acid] + CCC(C)C1C(=O)NC(=C)C(=O)NC(C(=O)NC(CSCC(C(=O)N1)NC(=O)/C(=C/C)/NC(=O)C(C(C)CC)N)C(=O)NC2C(SCC(NC(=O)CNC(=O)C3CCCN3C2=O)C(=O)NC(CCCCN)C(=O)NC4C(SCC(NC(=O)CNC(=O)C(NC(=O)C(NC(=O)C(NC(=O)CNC4=O)C)CC(C)C)CCSC)C(=O)NC(CC(=O)N)C(=O)NC(CCSC)C(=O)NC(CCCCN)C(=O)NC5C(SCC6C(=O)NC(C(=O)NC(CSC(C(C(=O)N6)NC(=O)C(NC5=O)C)C)C(=O)NC(CO)C(=O)NC(C(C)CC)C(=O)NC(CC7=CN=CN7)C(=O)NC(C(C)C)C(=O)NC(=C)C(=O)NC(CCCCN)C(=O)O)CC8=CN=CN8)C)C)C)CC(C)C [Nisin]
fitness, S. pneumoniae D39V, main component drawn
Details	partner 0.4275 µg/mL	partner 0.855 µg/mL	partner 1.6 µg/mL	partner 1.71 µg/mL	partner 3.2 µg/mL	partner 6.4 µg/mL
first compound 0.03 µg/mL	0.935	0.928	–	0.0945	0.0435	0.0142
first compound 0.06 µg/mL	0.858	0.81	–	0.0658	0.0566	0.0188
first compound 0.12 µg/mL	0.51	0.21	0.174	0.0732	0.0384	0.0513

O=C(N[C@H](CO)[C@H](O)c1ccc([N+](=O)[O-])cc1)C(Cl)Cl [Chloramphenicol] + CC1=C(C(=O)O)N2C(=O)[C@@H](NC(=O)[C@H](N)c3ccccc3)[C@H]2SC1 [Cephalexin]
fitness, S. aureus Newman
Details	partner 0.25 µg/mL	partner 0.5 µg/mL	partner 1 µg/mL
first compound 0.75 µg/mL	0.792	0.891	0.908
first compound 3 µg/mL	–	0.312	–

CC[C@H]1OC(=O)[C@H](C)[C@@H](O[C@H]2C[C@@](C)(OC)[C@@H](O)[C@H](C)O2)[C@H](C)[C@@H](O[C@@H]2O[C@H](C)C[C@H](N(C)C)[C@H]2O)[C@](C)(OC)C[C@@H](C)C(=O)[C@H](C)[C@@H](O)[C@]1(C)O [Clarithromycin] + CC1=C(C(=O)O)N2C(=O)[C@@H](NC(=O)[C@H](N)c3ccccc3)[C@H]2SC1 [Cephalexin]
fitness, S. pneumoniae D39V, one replicate
Details	first compound 0.007812 µg/mL	first compound 0.01562 µg/mL	first compound 0.03125 µg/mL	first compound 0.0625 µg/mL	first compound 0.125 µg/mL	first compound 0.25 µg/mL
partner 0.125 µg/mL	–	–	–	0.701	0.33	0.138
partner 0.25 µg/mL	–	–	–	0.723	0.381	0.174
partner 0.5 µg/mL	–	–	–	0.777	0.4	0.163
partner 1 µg/mL	0.314	0.417	0.236	–	–	–
partner 2 µg/mL	0.028	0.0414	0.0229	–	–	–
partner 4 µg/mL	0.0398	0.0811	0.0306	–	–	–

fitness, S. pneumoniae D39V
Details	first compound 0.07 µg/mL	first compound 0.14 µg/mL	first compound 0.28 µg/mL
partner 1 µg/mL	0.0665	0.0755	0.0377
partner 2 µg/mL	0.0399	0.0839	0.0276
partner 4 µg/mL	0.0364	0.0743	0.0463

O=C(O[C@@H]1Cc2c(O)cc(O)cc2O[C@@H]1c1cc(O)c(O)c(O)c1)c1cc(O)c(O)c(O)c1 [EGCG] + CC1(C)S[C@@H]2[C@H](NC(=O)Cc3ccccc3)C(=O)N2[C@H]1C(=O)O [Penicillin G]
fitness, S. aureus Newman
Details	first compound 12.5 µg/mL	first compound 25 µg/mL	first compound 50 µg/mL
partner 0.0195 µg/mL	0.738	0.623	–
partner 0.039 µg/mL	0.743	0.739	0.594
partner 0.078 µg/mL	0.741	0.729	0.644

O=C1CN(/N=C/c2ccc([N+](=O)[O-])o2)C(=O)N1 [Nitrofurantoin] + CCC(C)C1C(=O)NC(=C)C(=O)NC(C(=O)NC(CSCC(C(=O)N1)NC(=O)/C(=C/C)/NC(=O)C(C(C)CC)N)C(=O)NC2C(SCC(NC(=O)CNC(=O)C3CCCN3C2=O)C(=O)NC(CCCCN)C(=O)NC4C(SCC(NC(=O)CNC(=O)C(NC(=O)C(NC(=O)C(NC(=O)CNC4=O)C)CC(C)C)CCSC)C(=O)NC(CC(=O)N)C(=O)NC(CCSC)C(=O)NC(CCCCN)C(=O)NC5C(SCC6C(=O)NC(C(=O)NC(CSC(C(C(=O)N6)NC(=O)C(NC5=O)C)C)C(=O)NC(CO)C(=O)NC(C(C)CC)C(=O)NC(CC7=CN=CN7)C(=O)NC(C(C)C)C(=O)NC(=C)C(=O)NC(CCCCN)C(=O)O)CC8=CN=CN8)C)C)C)CC(C)C [Nisin]
S. pneumoniae D39V, main component drawn
Details	fitness
first compound 1.285 µg/mL, partner 1.6 µg/mL	0.0025
first compound 1.285 µg/mL, partner 3.2 µg/mL	0.0467
first compound 1.285 µg/mL, partner 6.4 µg/mL	0.0134
first compound 2 µg/mL, partner 0.4275 µg/mL	0.988
first compound 2 µg/mL, partner 0.855 µg/mL	0.991
first compound 2 µg/mL, partner 1.71 µg/mL	0.075
first compound 2.57 µg/mL, partner 1.6 µg/mL	0.0197
first compound 2.57 µg/mL, partner 3.2 µg/mL	0.0583
first compound 2.57 µg/mL, partner 6.4 µg/mL	0.0339
first compound 4 µg/mL, partner 0.4275 µg/mL	0.971
first compound 4 µg/mL, partner 0.855 µg/mL	0.993
first compound 4 µg/mL, partner 1.71 µg/mL	0.0559
first compound 8 µg/mL, partner 0.4275 µg/mL	0.85
first compound 8 µg/mL, partner 1.71 µg/mL	0.0537

S. pneumoniae D39V, first compound 5.14 µg/mL, one replicate, main component drawn
Details	fitness
partner 1.6 µg/mL	0.0172
partner 3.2 µg/mL	0.0456
partner 6.4 µg/mL	0.0152

C/C(=C\C(=O)OCCCCCCCCC(=O)O)C[C@@H]1OC[C@H](C[C@@H]2O[C@H]2[C@@H](C)[C@H](C)O)[C@@H](O)[C@H]1O [Pseudomonic acid] + O=C1CN(/N=C/c2ccc([N+](=O)[O-])o2)C(=O)N1 [Nitrofurantoin]
fitness, S. pneumoniae D39V
Details	partner 1.285 µg/mL	partner 2 µg/mL	partner 2.57 µg/mL	partner 4 µg/mL	partner 8 µg/mL
first compound 0.03 µg/mL	0.916	0.854	0.942	0.872	0.793
first compound 0.06 µg/mL	0.815	0.773	0.819	0.706	0.718
first compound 0.12 µg/mL	0.616	0.563	0.605	0.59	0.515

S. pneumoniae D39V, partner 5.14 µg/mL, one replicate
Details	fitness
first compound 0.03 µg/mL	0.912
first compound 0.06 µg/mL	0.8
first compound 0.12 µg/mL	0.556

N[C@@H]1CONC1=O [Cycloserine D] + CCC(C)C1C(=O)NC(=C)C(=O)NC(C(=O)NC(CSCC(C(=O)N1)NC(=O)/C(=C/C)/NC(=O)C(C(C)CC)N)C(=O)NC2C(SCC(NC(=O)CNC(=O)C3CCCN3C2=O)C(=O)NC(CCCCN)C(=O)NC4C(SCC(NC(=O)CNC(=O)C(NC(=O)C(NC(=O)C(NC(=O)CNC4=O)C)CC(C)C)CCSC)C(=O)NC(CC(=O)N)C(=O)NC(CCSC)C(=O)NC(CCCCN)C(=O)NC5C(SCC6C(=O)NC(C(=O)NC(CSC(C(C(=O)N6)NC(=O)C(NC5=O)C)C)C(=O)NC(CO)C(=O)NC(C(C)CC)C(=O)NC(CC7=CN=CN7)C(=O)NC(C(C)C)C(=O)NC(=C)C(=O)NC(CCCCN)C(=O)O)CC8=CN=CN8)C)C)C)CC(C)C [Nisin]
fitness, B. subtilis 168
Details	first compound 0.125 µg/mL	first compound 0.25 µg/mL	first compound 0.5 µg/mL
partner 0.5 µg/mL	0.926	0.867	0.878
partner 1 µg/mL	0.888	0.824	0.81
partner 2 µg/mL	0.589	0.601	0.606

fitness, B. subtilis 168, one replicate
Details	partner 1.25 µg/mL	partner 1.6 µg/mL	partner 2.5 µg/mL	partner 3.2 µg/mL	partner 4 µg/mL	partner 5 µg/mL	partner 6.4 µg/mL	partner 8 µg/mL	partner 16 µg/mL
first compound 0.125 µg/mL	≥ 1	0.654	0.708	0.0215	0.0688	0.137	0.0306	0.0472	0.0248
first compound 0.25 µg/mL	≥ 1	0.681	0.698	0.0139	0.0497	0.0686	0.0459	0.0297	0.0048
first compound 0.5 µg/mL	0.985	0.721	0.341	0.0205	0.041	0.0366	0.017	0.0245	0.0169

COc1c(N2C[C@@H]3CCCN[C@@H]3C2)c(F)cc2c(=O)c(C(=O)O)cn(C3CC3)c12 [Moxifloxacin] + CC1(C)S[C@@H]2[C@H](NC(=O)Cc3ccccc3)C(=O)N2[C@H]1C(=O)O [Penicillin G]
fitness, S. aureus Newman
Details	first compound 0.0075 µg/mL	first compound 0.015 µg/mL	first compound 0.03 µg/mL
partner 0.0195 µg/mL	0.722	0.625	0.081
partner 0.039 µg/mL	0.706	–	0.059
partner 0.078 µg/mL	0.721	0.596	0.0633
